Assay results from ChEMBL document CHEMBL4311994, “New 2,6-diaminopyridines containing a sterically hindered benzylphosphonate moiety in the aromatic core as potential antioxidant and anti-cancer drugs” (Eur J Med Chem, 2019).
Calls of active or inactive are those of the source. The calls are words filed in the database; no cut-off is given here.

How the values were obtained:
Candida albicans = assay: Antimicrobial activity against Candida albicans 855-653 by serial dilution method; format: functional
[1] = Hemolytic activity in human erythrocytes at 10.0 +/- 0.8 uM incubated for 1 hrs by photometric analysis relative to control; format: ADME, cell-based, Erythrocyte; settings: read-out: Activity
[2] = Antioxidant activity assessed as ABAP free radical scavenging activity by measuring decrease in chemiluminescence intensity at 0.25 to 1 mM by luminescence based assay; format: functional
Escherichia coli = assay: Antimicrobial activity against Escherichia coli CDC F-50 by serial dilution method; format: functional
[3] = Hemolytic activity in human erythrocytes at 100.0 +/- 7.8 uM incubated for 1 hrs by photometric analysis relative to control; format: ADME, cell-based, Erythrocyte; settings: read-out: Activity
Bacillus cereus = assay: Antimicrobial activity against Bacillus cereus ATCC 8035 by serial dilution method; format: functional
[4] = test system: Trichophyton mentagrophytes; assay: Antimicrobial activity against Trichophyton mentagrophytes var. gypseum 1773 by serial dilution method; format: functional
MCF7 = assay: Antiproliferative activity against human MCF7 cells by fluorescence based viable cell counting method; format: functional
[5] = Hemolytic activity in human erythrocytes at 50.0 +/- 4.3 uM incubated for 1 hrs by photometric analysis relative to control; format: ADME, cell-based, Erythrocyte; settings: read-out: Activity
Staphylococcus aureus = assay: Antimicrobial activity against Staphylococcus aureus ATCC 209P by serial dilution method; format: functional
Aspergillus niger = assay: Antimicrobial activity against Aspergillus niger BKMF 1119 by serial dilution method; format: functional
Pseudomonas aeruginosa = assay: Antimicrobial activity against Pseudomonas aeruginosa ATCC 9027 by serial dilution method; format: functional
[6] = Cytotoxicity against human Chang cells assessed as reduction in cell viability by fluorescence based viable cell counting method
M-HeLa [7] = assay: Antiproliferative activity against human M-HeLa cells by fluorescence based viable cell counting method; format: functional
M-HeLa [8] = assay: Induction of apoptosis in human M-HeLa cells assessed as increase in Akt expression at IC50 incubated for 24 hrs by luminescence based assay; format: functional, cell-based
M-HeLa [9] = assay: Induction of apoptosis in human M-HeLa cells assessed as increase in bcl2 expression at IC50 incubated for 24 hrs by luminescence based assay; format: functional, cell-based
M-HeLa [10] = assay: Induction of apoptosis in human M-HeLa cells assessed as increase in JNK expression at IC50 incubated for 24 hrs by luminescence based assay; format: functional, cell-based
M-HeLa [11] = assay: Induction of apoptosis in human M-HeLa cells assessed as increase in p53 expression at IC50 incubated for 24 hrs by luminescence based assay; format: functional, cell-based
M-HeLa [12] = assay: Induction of apoptosis in human M-HeLa cells assessed as increase in caspase 8 expression at IC50 incubated for 24 hrs by luminescence based assay; format: functional, cell-based
M-HeLa [13] = assay: Induction of apoptosis in human M-HeLa cells assessed as increase in caspase 9 expression at IC50 incubated for 24 hrs by luminescence based assay relative to control; format: functional
M-HeLa [14] = assay: Induction of apoptosis in human M-HeLa cells assessed as effect on Bad expression at IC50 incubated for 24 hrs by luminescence based assay; format: functional, cell-based
A549 = assay: Antiproliferative activity against human A549 cells by fluorescence based viable cell counting method; format: functional
PC-3 = assay: Antiproliferative activity against human PC3 cells by fluorescence based viable cell counting method; format: functional
[15] = Homo sapiens, MCF7, read-out: IC50
[16] = Homo sapiens, M-HeLa, read-out: IC50

Row | SMILES | MIC (Candida albicans) [µM] | hemolysis at 1 h, 10 uM [1] [%] | Activity [2] | MIC (Escherichia coli) [µM] | hemolysis at 1 h, 100 uM [3] [%] | MIC (Bacillus cereus) [µM] | MIC [4] [µM] | IC50 (MCF7; [15]) [µM] | hemolysis at 1 h, 50 uM [5] [%] | MIC (Staphylococcus aureus) [µM] | MIC (Aspergillus niger) [µM] | MIC (Pseudomonas aeruginosa) [µM] | IC50 ([6]; Homo sapiens, read-out: IC50) [µM] | IC50 (M-HeLa [7]; [16]) [µM] | other results
1 | CC(C)OP(=O)(OC(C)C)C(c1cc(C(C)(C)C)c(O)c(C(C)(C)C)c1)c1ccc(N)nc1N (centres undefined) | > 500 | 0 | Active | > 500 | 0.3 | > 500 | > 500 | 21.8 | 0 | > 500 | > 500 | > 500 | > 100 | 38 | –
2 | CC/C(=C(\c1ccccc1)c1ccc(OCCN(C)C)cc1)c1ccccc1 [TAMOXIFEN] | – | – | – | – | – | – | – | – | – | – | – | – | 42.1 | – | –
3 | CC(C)OP(=O)(Cc1cc(C(C)(C)C)c(O)c(C(C)(C)C)c1)OC(C)C | – | – | Active | – | – | – | – | 68.2 | – | – | – | – | 96 | 30 | –
4 | COP(=O)(Cc1cc(C(C)(C)C)c(O)c(C(C)(C)C)c1)OC | – | 0 | Active | – | 0 | – | – | > 100 | 0 | – | – | – | > 100 | 26 | –
5 | CCOP(=O)(OCC)C(c1cc(C(C)(C)C)c(O)c(C(C)(C)C)c1)c1ccc(N)cc1N (centres undefined) | > 500 | 0 | Active | > 500 | 0 | > 500 | > 500 | 68.2 | 0 | > 500 | > 500 | > 500 | 54.9 | 39 | –
6 | CCOP(=O)(OCC)C(c1cc(C(C)(C)C)c(O)c(C(C)(C)C)c1)c1ccc(N)nc1N (centres undefined) | > 500 | 0 | Active | > 500 | 0 | > 500 | > 500 | 34.2 | 0 | > 500 | > 500 | > 500 | > 100 | 17.1 | –
7 | CC(C)(C)c1cc(C(c2ccc(N)nc2N)P(=O)(Oc2ccccc2)Oc2ccccc2)cc(C(C)(C)C)c1O (centres undefined) | > 500 | 0 | Active | > 500 | 1.9 | > 500 | > 500 | 16 | 0.5 | > 500 | > 500 | > 500 | 52 | 7.4 | Activity (M-HeLa [8]): Active; Activity (M-HeLa [9]): Active; Activity (M-HeLa [10]): Active; Activity (M-HeLa [11]): Active; Activity (M-HeLa [12]): inactive; fold change (FC) (M-HeLa [13]): 2; Activity (M-HeLa [14]): inactive
8 | CC(C)(C)C1=CC(=CP(=O)(Oc2ccccc2)Oc2ccccc2)C=C(C(C)(C)C)C1=O | – | – | Active | – | – | – | – | 38.4 | – | – | – | – | 17 | 14.3 | –
9 | COP(=O)(C=C1C=C(C(C)(C)C)C(=O)C(C(C)(C)C)=C1)OC | – | – | Active | – | – | – | – | > 100 | – | – | – | – | 24.1 | 17.2 | –
10 | CC(C)(C)c1cc(C(c2ccc(N)cc2N)P(=O)(Oc2ccccc2)Oc2ccccc2)cc(C(C)(C)C)c1O (centres undefined) | > 500 | 0 | Active | > 500 | 1.9 | > 500 | > 500 | – | 0.9 | > 500 | > 500 | > 500 | – | – | IC50 (MCF7; mcf7): Nd(Toxic); IC50 [6]: Nd(Toxic); IC50 (M-HeLa [7]; m-hela): Nd(Toxic)
11 | CC(C)OP(=O)(C=C1C=C(C(C)(C)C)C(=O)C(C(C)(C)C)=C1)OC(C)C | – | – | Active | – | – | – | – | 66 | – | – | – | – | 22.4 | 10.1 | –
12 | COc1cccc2c1C(=O)c1c(O)c3c(c(O)c1C2=O)C[C@@](O)(C(=O)CO)C[C@@H]3O[C@H]1C[C@H](N)[C@H](O)[C@H](C)O1 [DOXORUBICIN] | – | – | – | – | – | – | – | – | – | – | – | – | 1.3 | 3 | –
13 | CC(C)OP(=O)(OC(C)C)C(c1cc(C(C)(C)C)c(O)c(C(C)(C)C)c1)c1ccc(N)cc1N (centres undefined) | > 500 | – | Active | > 500 | – | > 500 | > 500 | – | – | > 500 | > 500 | > 500 | – | – | –
14 | CC(C)(C)c1cc(CP(=O)(Oc2ccccc2)Oc2ccccc2)cc(C(C)(C)C)c1O | – | – | Active | – | – | – | – | > 100 | – | – | – | – | 40 | 15.6 | –
15 | CCCOP(=O)(OCCC)C(c1cc(C(C)(C)C)c(O)c(C(C)(C)C)c1)c1ccc(N)nc1N (centres undefined) | – | – | Active | – | – | – | – | 32.3 | – | – | – | – | 28.1 | 11.1 | –
16 | COP(=O)(OC)C(c1cc(C(C)(C)C)c(O)c(C(C)(C)C)c1)c1ccc(N)nc1N (centres undefined) | > 500 | 0 | Active | > 500 | 0 | > 500 | > 500 | 31 | 0 | > 500 | > 500 | > 500 | > 100 | 16.1 | Activity (A549): inactive; Activity (PC-3): inactive
17 | COP(=O)(OC)C(c1cc(C(C)(C)C)c(O)c(C(C)(C)C)c1)c1ccc(N)cc1N (centres undefined) | > 500 | 0 | Active | > 500 | 0 | > 500 | > 500 | > 100 | 0 | > 500 | > 500 | > 500 | > 100 | 45.3 | –
